The molecules below were run against T1, LRRK2 wild type (recombinant human, catalytic domain amino acids 970-2527, GST-tagged) (Homo sapiens, UniProt Q5S007) (assay: LRRK2 wild type protein kinase assay ([γ-33P] ATP, peptide substrate […]), IC50). Details: LRRK2 (variant not given); read-out: Potency score, LRRK2 IC50.
T1 construct: The wild type used was recombinant human, catalytic domain (amino acids 970-2527) GST-tagged, expressed in insect cells; GST; purchased Invitrogen Corporation PV4873; host or cells: insect cells
T1 sequence (Q5S007 970-2527): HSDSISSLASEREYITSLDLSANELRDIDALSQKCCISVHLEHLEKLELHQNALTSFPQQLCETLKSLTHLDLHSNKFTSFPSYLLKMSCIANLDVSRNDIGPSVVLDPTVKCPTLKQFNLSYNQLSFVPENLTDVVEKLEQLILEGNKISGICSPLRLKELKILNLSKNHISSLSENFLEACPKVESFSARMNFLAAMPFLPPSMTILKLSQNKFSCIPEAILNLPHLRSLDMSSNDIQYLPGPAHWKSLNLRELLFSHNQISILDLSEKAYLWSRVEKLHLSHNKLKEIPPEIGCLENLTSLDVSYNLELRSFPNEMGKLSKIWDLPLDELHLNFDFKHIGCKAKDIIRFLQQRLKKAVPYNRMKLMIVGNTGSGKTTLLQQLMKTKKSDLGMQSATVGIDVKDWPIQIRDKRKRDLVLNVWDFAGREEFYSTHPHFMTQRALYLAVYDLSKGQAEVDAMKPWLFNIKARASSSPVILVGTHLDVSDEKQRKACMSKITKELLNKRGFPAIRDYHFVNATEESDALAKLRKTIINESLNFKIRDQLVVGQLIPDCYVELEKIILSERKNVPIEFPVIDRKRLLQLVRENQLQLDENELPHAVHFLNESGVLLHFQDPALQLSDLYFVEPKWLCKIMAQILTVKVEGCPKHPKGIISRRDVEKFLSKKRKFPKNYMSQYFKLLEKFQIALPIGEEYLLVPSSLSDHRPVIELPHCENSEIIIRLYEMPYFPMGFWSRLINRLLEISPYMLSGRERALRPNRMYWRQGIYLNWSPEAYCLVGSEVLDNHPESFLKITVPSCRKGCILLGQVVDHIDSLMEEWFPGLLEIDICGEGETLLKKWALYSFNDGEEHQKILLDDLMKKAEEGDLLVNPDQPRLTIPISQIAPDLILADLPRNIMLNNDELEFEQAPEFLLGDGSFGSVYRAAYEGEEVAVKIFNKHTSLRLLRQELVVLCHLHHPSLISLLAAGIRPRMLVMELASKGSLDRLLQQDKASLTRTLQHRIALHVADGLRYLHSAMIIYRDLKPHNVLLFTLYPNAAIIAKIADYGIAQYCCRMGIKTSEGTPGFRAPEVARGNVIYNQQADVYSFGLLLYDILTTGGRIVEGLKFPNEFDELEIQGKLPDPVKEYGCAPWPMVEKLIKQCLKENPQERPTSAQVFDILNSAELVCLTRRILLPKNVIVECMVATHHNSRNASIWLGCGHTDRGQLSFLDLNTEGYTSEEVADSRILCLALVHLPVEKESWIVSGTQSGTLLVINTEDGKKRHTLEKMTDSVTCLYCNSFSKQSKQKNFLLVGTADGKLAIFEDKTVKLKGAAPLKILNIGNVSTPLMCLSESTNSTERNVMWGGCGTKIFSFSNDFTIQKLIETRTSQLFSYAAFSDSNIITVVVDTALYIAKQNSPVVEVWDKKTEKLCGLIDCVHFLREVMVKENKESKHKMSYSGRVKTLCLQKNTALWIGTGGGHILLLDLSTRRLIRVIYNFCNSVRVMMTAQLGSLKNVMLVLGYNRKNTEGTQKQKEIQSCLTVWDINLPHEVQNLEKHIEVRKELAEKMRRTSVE
Format: biochemical
Outline: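 IC50 derived from duplicate 10-point titrations, with 33P incorporation into a 100 μM peptide counted after P81 filter capture. Roughly 5 nM unactivated kinase reacted with Mg/[γ-33P]ATP for 180 min at room temperature (~21 °C), pH 7.5 Tris buffer containing 10 mM MgCl2, EGTA and DTT; acid-quenched.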
`O=C(Nc1ccc2nccnc2c1)c1ccc(CCc2n[nH]c3ccnc(NC4CCCCC4)c23)cc1` [Example 254, 4-[2-(4-Cyclohexylamino-1H-pyrazolo[4,3-c]pyridin-3-yl)-ethyl]-N-quinoxalin-6-yl-benzamide] was tested, and the IC50 was < 0.1 µM. In the case of `CC1CN(C(=O)c2ccc(CCc3n[nH]c4ccnc(NC5CCCCC5)c34)cc2)CCN1C` (centres unmarked) [Example 247, {4-[2-(4-Cyclohexylamino-1H-pyrazolo[4,3-c]pyridin-3-yl)-ethyl]-phenyl}-(3,4-dimethyl-piperazin-1-yl)-methanone], the IC50 is reported as < 0.1 µM. In the case of `Cc1n[nH]c2ccnc(N3CCOCC3)c12` [Example 10, 3-Methyl-4-morpholin-4-yl-1H-pyrazolo[4,3-c]pyridine], the IC50 is reported as 1 to 10 µM. For `CC(=O)Nc1cccc(-c2n[nH]c3ccnc(NC4CCCCC4)c23)c1` [Example 137, N-[3-(4-Cyclohexylamino-1H-pyrazolo[4,3-c]pyridin-3-yl)-phenyl]-acetamide], the IC50 was 1 to 10 µM. For `CCC(C)Nc1nccc2[nH]nc(C)c12` (centres unmarked) [Example 23, sec-Butyl-(3-methyl-1H-pyrazolo[4,3-c]pyridin-4-yl)-amine], the IC50 was 0.1 to 1 µM. In the case of `Cc1n[nH]c2ccnc(O[C@H](C)Cc3ccccc3)c12` [Example 299, 3-Methyl-4-((R)-1-methyl-2-phenyl-ethoxy)-1H-pyrazolo[4,3-c]pyridine], the IC50 is reported as < 0.1 µM. With `COCCNc1nccc2[nH]nc(C)c12` [Example 6, (2-Methoxy-ethyl)-(3-methyl-1H-pyrazolo[4,3-c]pyridin-4-yl)-amine] the IC50 was 1 to 10 µM. `O=C(Nc1cccc(CCc2n[nH]c3ccnc(NC4CCCCC4)c23)c1)C1CCCC1` [Example 225, Cyclopentanecarboxylic acid {3-[2-(4-cyclohexylamino-1H-pyrazolo[4,3-c]pyridin-3-yl)-ethyl]-phenyl}-amide] was tested, and the IC50 was < 0.1 µM. `COc1ccc(-c2n[nH]c3ccnc(NC4CCCCC4)c23)cc1Cl` [Example 140, [3-(3-Chloro-4-methoxy-phenyl)-1H-pyrazolo[4,3-c]pyridin-4-yl]-cyclohexyl-amine] gave an IC50 of 0.1 to 1 µM. `Cc1n[nH]c2ccnc(-c3ccccc3F)c12` [Example 49, 4-(2-Fluoro-phenyl)-3-methyl-1H-pyrazolo[4,3-c]pyridine] gave an IC50 of 0.1 to 1 µM. `Cc1n[nH]c2ccnc(Nc3ccc(C(=O)N(C)C4CCCCC4)cc3)c12` [Example 107, N-Cyclohexyl-N-methyl-4-(3-methyl-1H-pyrazolo [4,3-c]pyridin-4-ylamino)-benzamide] showed an IC50 of 1 to 10 µM. Molecule `Cc1n[nH]c2ccnc(O[C@@H](C)C(C)C)c12` [Example 292, 4-((S)-1,2-Dimethyl-propoxy)-3-methyl-1H-pyrazolo [4,3-c]pyridine] has an IC50 of 0.1 to 1 µM. For `O=C(COc1ccccc1)Nc1ccc(CCc2n[nH]c3ccnc(NC4CCCCC4)c23)cc1` [Example 273, N-{4-[2-(4-Cyclohexylamino-1H-pyrazolo[4,3-c]pyridin-3-yl)-ethyl]-phenyl}-2-phenoxy-acetamide], the IC50 was < 0.1 µM. With `Cc1n[nH]c2ccnc(CC3CCCCC3)c12` [Example 126, 4-Cyclohexylmethyl-3-methyl-1H-pyrazolo[4,3-c]pyridine] the IC50 was 1 to 10 µM. In the case of `O=C(Nc1ccc(CCc2n[nH]c3ccnc(NC4CCCCC4)c23)cc1)C1CC1` [Example 274, Cyclopropanecarboxylic acid {4-[2-(4-cyclohexylamino-1H-pyrazolo[4,3-c]pyridin-3-yl)-ethyl]-phenyl}-amide], the IC50 is reported as < 0.1 µM. With `Cc1n[nH]c2ccnc(NC3CCCN(C)C3)c12` (centres unmarked) [Example 31, (1-Methyl-piperidin-3-yl)-(3-methyl-1H-pyrazolo[4,3-c]pyridin-4-yl)-amine] the IC50 was 1 to 10 µM. `Cc1n[nH]c2ccnc(Nc3ccc(F)cc3)c12` [Example 311, (4-Fluoro-phenyl)-(3-methyl-1H-pyrazolo[4,3-c]pyridin-4-yl)-amine] gave an IC50 of 0.1 to 1 µM. In the case of `Cc1n[nH]c2ccnc(-c3ccc(F)cc3)c12` [Example 50, 4-(4-Fluoro-phenyl)-3-methyl-1H-pyrazolo[4,3-c]pyridine], the IC50 is reported as 1 to 10 µM. With `CN1CCC(C(=O)Nc2cccc(CCc3n[nH]c4ccnc(NC5CCCCC5)c34)c2)CC1` [Example 224, 1-Methyl-piperidine-4-carboxylic acid {3-[2-(4-cyclohexylamino-1H-pyrazolo[4,3-c]pyridin-3-yl)-ethyl]-phenyl}-amide] the IC50 was 0.1 to 1 µM. `Cc1n[nH]c2ccnc(N[C@H]3CC[C@H](O)CC3)c12` [Example 26, Trans-4-(3-Methyl-1H-pyrazolo[4,3-c]pyridin-4-ylamino)-cyclohexanol] showed an IC50 of 0.1 to 1 µM. Molecule `Cc1n[nH]c2ccnc(NCCc3ccccc3F)c12` [Example 332, [2-(2-Fluoro-phenyl)-ethyl]-(3-methyl-1H-pyrazolo[4,3-c]pyridin-4-yl)-amine] has an IC50 of 0.1 to 1 µM. Work on `Cc1n[nH]c2ccnc(Nc3cccc(Br)c3)c12` [Example 67, (3-Bromo-phenyl)-(3-methyl-1H-pyrazolo[4,3-c]pyridin-4-yl)-amine] yielded an IC50 of 0.1 to 1 µM. `Cc1n[nH]c2ccnc(-c3cccc(F)c3)c12` [Example 51, 4-(3-Fluoro-phenyl)-3-methyl-1H-pyrazolo[4,3-c]pyridine] was tested, and the IC50 was 1 to 10 µM. With `Cc1n[nH]c2ccnc(NCc3ccc(F)cc3)c12` [Example 316, (4-Fluoro-benzyl)-(3-methyl-1H-pyrazolo[4,3-c]pyridin-4-yl)-amine] the IC50 was 1 to 10 µM. `O=C(CCc1n[nH]c2ccnc(NC3CCCCC3)c12)N1CCN(c2cccc(Cl)c2)CC1` [Example 180, 1-[4-(3-Chloro-phenyl)-piperazin-1-yl]-3-(4-cyclohexylamino-1H-pyrazolo[4,3-c]pyridin-3-yl)-propan-1-one] gave an IC50 of 0.1 to 1 µM. In the case of `Cc1n[nH]c2ccnc(NCCc3ccccc3Cl)c12` [Example 330, [2-(2-Chloro-phenyl)-ethyl]-(3-methyl-1H-pyrazolo[4,3-c]pyridin-4-yl)-amine], the IC50 is reported as < 0.1 µM. For `COc1ccccc1CCNc1nccc2[nH]nc(C)c12` [Example 339, [2-(2-Methoxy-phenyl)-ethyl]-(3-methyl-1H-pyrazolo[4,3-c]pyridin-4-yl)-amine], the IC50 was 1 to 10 µM. `Cc1n[nH]c2ccnc(NC3CCC(F)(F)CC3)c12` [Example 20, (4,4-Difluoro-cyclohexyl)-(3-methyl-1H-pyrazolo[4,3-c]pyridin-4-yl)-amine] showed an IC50 of 0.1 to 1 µM. `CN(Cc1ccccc1)C(=O)CCc1n[nH]c2ccnc(NC3CCCCC3)c12` [Example 183, N-Benzyl-3-(4-cyclohexylamino-1H-pyrazolo[4,3-c]pyridin-3-yl)-N-methyl-propionamide] was tested, and the IC50 was 0.1 to 1 µM. `Cc1n[nH]c2ccnc(NC3CCOCC3)c12` [Example 4, (3-Methyl-1H-pyrazolo[4,3-c]pyridin-4-yl)-(tetrahydro-pyran-4-yl)-amine] showed an IC50 of 0.1 to 1 µM. With `CC[C@H](C)Nc1nccc2[nH]nc(C)c12` [Example 44] the IC50 was 0.1 to 1 µM. With `CCOc1nccc2[nH]nc(C)c12` [Example 124, 4-Ethoxy-3-methyl-1H-pyrazolo[4,3-c]pyridine] the IC50 was 0.1 to 1 µM. `Cc1n[nH]c2ccnc(Nc3ccc(Cl)cc3Cl)c12` [Example 306, (2,4-Dichloro-phenyl)-(3-methyl-1H-pyrazolo[4,3-c]pyridin-4-yl)-amine] gave an IC50 of 0.1 to 1 µM. Work on `CC(=O)N1CCC(Nc2nccc3[nH]nc(C)c23)CC1` [Example 101, 1-[4-(3-Methyl-1H-pyrazolo[4,3-c]pyridin-4-ylamino)-piperidin-1-yl]-ethanone] yielded an IC50 of 0.1 to 1 µM. For `Cc1n[nH]c2ccnc(NC3CCCC3)c12` [Example 21, Cyclopentyl-(3-methyl-1H-pyrazolo[4,3-c]pyridin-4-yl)-amine], the IC50 was 0.1 to 1 µM.

— patent US20170320870A1 (Medical Research Council Technology, priority 2009, published 2017)
